Data from patent US20130210860A1, “PROPHYLACTIC AND/OR THERAPEUTIC AGENT AGAINST LYMPHEDEMA” (KOWA CO., LTD., priority 2010, published 2013).

Tests used:
[1] = tested on: mouse model of abdominal wall lymphedema; test: Mouse model of abdominal wall lymphedema, thickness of the skin section (wild-type mouse); type: in vivo, C57BL/6J mouse; conditions: for lymphedema (thickness of the skin): C57BL/6J mice, combined results of Experiments 2 and 3, pitavastatin 1 mg/kg/day, atorvastatin 2.5 or 1 mg/kg/day, pravastatin 1 mg/kg/day oral, after seven days, FIG. 2
Description: (§1) A male C57BL/6J mouse and a male eNOS-deficient mouse having a genetic background of C57BL/6J, both of which are eight weeks old at the time of surgery, each receives an intraperitoneal injection of Nembutal at 60 mg/kg, and further receives a subcutaneous injection of 1% Evans blue for identification of lymph nodes and lymphatic vessels in the dorsum of the right foot, the back of the hand, and the buttocks in an amount of 0.05 mL at each site. The abdominal hair was removed and the abdominal skin is incised in an open-door fashion so as to identify the inguinal lymph nodes, axillary lymph nodes, and lymphatic vessels connecting these lymph nodes in the right abdominal wall. The lymphatic vessels are ligated at two to three sites near the axillary lymph nodes, followed by excision of the axillary lymph nodes. Subsequently, the skin is sutured, whereby the surgery is completed. On the seventh day after the surgery, the abdominal skin is once again incised in an open-door fashion to collect the abdominal wall tissues. The mice were orally administered with the statins dissolved in distilled water (250 μl) from three days before to seven days after the surgery once a day. […] Methanol-fixed paraffin-embedded tissue sections were stained with hematoxylin, and the thickness of the skin section prepared from the upper inguinal area, which is the lowermost part of a mouse, was measured. Anatomically, interstitial fluid tends to be accumulated in this area.

[2] = tested on: mouse model of abdominal wall lymphedema; test: Mouse model of abdominal wall lymphedema, thickness of the skin section (eNOS-deficient mouse); type: in vivo, eNOS-deficient mouse having a genetic background of C57BL/6J; conditions: Experiment 1, 10 mg/kg/day oral, once a day from three days before to seven days after the surgery, FIG. 1
Description: as §1, with “Anatomically, interstitial fluid tends to be accumulated in this area.” left out

[3] = tested on: mouse model of abdominal wall lymphedema; test: Visual examination by lymphangiography (Evans blue): leakage of lymph fluid and lymphatic flow in the lymphedema model; type: in vivo, C57BL/6J mouse; conditions: C57BL/6J mice; administration method of Experiment 3 (1 mg/kg/day oral); lymphangiography on the seventh and fourteenth days after the surgery; FIG. 3
Description: A male C57BL/6J mouse and a male eNOS-deficient mouse having a genetic background of C57BL/6J, both of which are eight weeks old at the time of surgery, each receives an intraperitoneal injection of Nembutal at 60 mg/kg, and further receives a subcutaneous injection of 1% Evans blue for identification of lymph nodes and lymphatic vessels in the dorsum of the right foot, the back of the hand, and the buttocks in an amount of 0.05 mL at each site. The abdominal hair was removed and the abdominal skin is incised in an open-door fashion so as to identify the inguinal lymph nodes, axillary lymph nodes, and lymphatic vessels connecting these lymph nodes in the right abdominal wall. The lymphatic vessels are ligated at two to three sites near the axillary lymph nodes, followed by excision of the axillary lymph nodes. Subsequently, the skin is sutured, whereby the surgery is completed. […]
On the seventh and fourteenth days after the surgery, 0.05 μl of 1% Evans blue was locally injected into the inguinal lymph nodes for lymphangiography, whereby leakage of lymph fluid and lymphatic flow were evaluated.
Each statin was administered by the administration method employed in Experiment 3) and the leakage of lymph fluid and lymphatic flow were evaluated by lymphangiography of the lymph node tissues.

Row | Structure (SMILES) | lymphedema (thickness of the skin) [1] | lymphedema (thickness of the skin section prepared from the upper inguinal area) ([1]; wild-type mouse, Experiment 1, 10 mg/kg/day oral, once a day from three days before to seven days after the surgery, FIG. 1) | lymphedema (thickness of the skin section prepared from the upper inguinal area) [2] | leakage of lymph fluid [3]
1 | O=C(O)C[C@H](O)C[C@H](O)/C=C/c1c(C2CC2)nc2ccccc2c1-c1ccc(F)cc1 [pitavastatin, (3R,5S,6E)-7-[2-cyclopropyl-4-(4-fluorophenyl)-3-quinolyl]-3,5-dihydroxy-6-heptenoic acid] | markedly inhibit | markedly inhibited | markedly inhibited | markedly inhibited
2 | CC[C@H](C)C(=O)O[C@H]1C[C@H](O)C=C2C=C[C@H](C)[C@H](CC[C@@H](O)C[C@@H](O)CC(=O)O)[C@H]21 [pravastatin, (+)-(3R,5R)-3,5-dihydroxy-7-[(1S,2S,6S,8S,8aR)-6-hydroxy-2-methyl-8-[(S)-2-methylbutyryloxy]-1,2,6,7,8,8a-hexahydro-1-naphthyl]heptanoic acid] | markedly inhibit | – | – | –
